In US10577337B2, “Compositions and methods of treatment with prodrugs of tizoxanide, an analogue or salt thereof” (Romark Laboratories, L.C., priority 2014, dated 2020):

How the values were obtained:
[1] = humans, cited from earlier work
Aqueous solubility = type: physicochemical

Row | aqueous solubility, descriptive term (Aqueous solubility) | solubility (Aqueous solubility; aqueous) | SMILES | effect of food on absorption ([1]; administered with food) | half-life of tizoxanide in plasma ([1]; after oral nitazoxanide or nitazoxanide plus tizoxanide)
1 | practically insoluble | < 100 µg/mL | CC(=O)Oc1ccccc1C(=O)Nc1ncc([N+](=O)[O-])s1 [nitazoxanide, 2-(acetolyloxy)-N-(5-nitro-2-thiazolyl)benzamide] | approximately doubled with food | –
2 | – | – | O=C(Nc1ncc([N+](=O)[O-])s1)c1ccccc1O [tizoxanide] | – | approximately 1.5 hours
